According to patent publication US8163909B2, “Substituted hydroxyethyl amine compounds as beta-secretase modulators and methods of use” (Amgen Inc., priority 2007, dated 2012):
Like-named read-outs stand apart in the source and are kept apart here.

Tests used:
[1] = Microsomal stability assay, human liver microsomes;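 further: pooled human liver microsomes at 0.25 mg/mL with 1 µM compound and NADPH at 37 °C, pH 7.4, for 30 min, unchanged parent quantified by LC-MS/MS against the 0 min sample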
CYP3A4 (CYP3A) = CYP3A4 (CYP3A) (Homo sapiens, UniProt P08684); assay: in vitro; settings: microsomes, pH 7.4;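 further: inhibition of CYP3A-mediated 1-hydroxymidazolam formation after 10 min incubation with NADPH, quantified by HPLC MS relative to metabolite produced without test compound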
CYP3A4 (CYP3A), sequence (P08684 2-503): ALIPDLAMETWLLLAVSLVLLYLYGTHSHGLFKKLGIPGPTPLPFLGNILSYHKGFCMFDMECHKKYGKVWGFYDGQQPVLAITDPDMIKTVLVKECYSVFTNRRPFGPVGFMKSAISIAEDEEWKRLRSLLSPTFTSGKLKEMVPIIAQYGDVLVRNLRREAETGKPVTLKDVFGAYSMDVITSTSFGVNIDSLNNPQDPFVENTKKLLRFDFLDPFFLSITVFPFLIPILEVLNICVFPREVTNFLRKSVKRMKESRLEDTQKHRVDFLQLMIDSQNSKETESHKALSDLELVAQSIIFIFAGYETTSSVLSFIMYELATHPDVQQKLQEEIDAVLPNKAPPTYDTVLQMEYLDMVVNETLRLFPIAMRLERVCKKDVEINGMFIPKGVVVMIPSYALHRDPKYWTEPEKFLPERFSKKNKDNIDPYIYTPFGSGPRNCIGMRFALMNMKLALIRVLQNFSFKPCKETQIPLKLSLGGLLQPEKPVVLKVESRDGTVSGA

[2] = target: Beta Secretase enzyme (BACE) (Homo sapiens, UniProt P56817); assay: In vitro enzymatic BACE FRET (fluorescence resonance energy transfer) assay; type: biochemical;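 further: fluorescence read after 1 h with 50 nM quenched peptide substrate spanning the BACE cleavage site, in pH 4.2 acetate buffer containing 10% DMSO and nonionic detergent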
Beta Secretase enzyme (BACE), sequence (P56817 46-501): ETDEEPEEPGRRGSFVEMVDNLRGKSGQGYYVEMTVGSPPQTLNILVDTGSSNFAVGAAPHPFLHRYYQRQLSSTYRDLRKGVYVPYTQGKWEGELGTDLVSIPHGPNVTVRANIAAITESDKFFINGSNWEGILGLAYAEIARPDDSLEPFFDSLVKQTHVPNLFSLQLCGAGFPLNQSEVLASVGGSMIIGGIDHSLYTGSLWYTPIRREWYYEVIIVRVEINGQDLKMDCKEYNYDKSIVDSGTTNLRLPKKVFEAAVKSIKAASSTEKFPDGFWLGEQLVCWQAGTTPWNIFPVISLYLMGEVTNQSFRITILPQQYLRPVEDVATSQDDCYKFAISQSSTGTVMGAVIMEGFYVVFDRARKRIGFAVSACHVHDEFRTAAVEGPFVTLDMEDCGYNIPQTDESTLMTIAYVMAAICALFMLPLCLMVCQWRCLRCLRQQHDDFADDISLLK

[3] = system: Aβ40 in conditioned medium of cells stably expressing Amyloid Precursor Protein (APP); assay: In vitro BACE cell-based assay (Aβ40 in conditioned medium, sandwich ELISA); settings: Homo sapiens;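 further: compounds added as a dilution series, secreted peptide quantified by europium time-resolved fluorescence readout, potency fitted from percent of control versus compound concentration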
[4] = Microsomal stability assay, rat liver microsomes;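 further: rat liver microsomes (0.25 mg/mL) with about 1 µM compound plus 1 mM NADPH, pH 7.4, 37 °C for 30 min, parent left measured by LC-MS/MS against 0 min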
CYP2D6 = CYP2D6 (Homo sapiens, UniProt P10635); assay: CYP2D6 inhibition assay (bufuralol, pooled human liver microsomes)
CYP2D6, sequence (P10635 whole entry): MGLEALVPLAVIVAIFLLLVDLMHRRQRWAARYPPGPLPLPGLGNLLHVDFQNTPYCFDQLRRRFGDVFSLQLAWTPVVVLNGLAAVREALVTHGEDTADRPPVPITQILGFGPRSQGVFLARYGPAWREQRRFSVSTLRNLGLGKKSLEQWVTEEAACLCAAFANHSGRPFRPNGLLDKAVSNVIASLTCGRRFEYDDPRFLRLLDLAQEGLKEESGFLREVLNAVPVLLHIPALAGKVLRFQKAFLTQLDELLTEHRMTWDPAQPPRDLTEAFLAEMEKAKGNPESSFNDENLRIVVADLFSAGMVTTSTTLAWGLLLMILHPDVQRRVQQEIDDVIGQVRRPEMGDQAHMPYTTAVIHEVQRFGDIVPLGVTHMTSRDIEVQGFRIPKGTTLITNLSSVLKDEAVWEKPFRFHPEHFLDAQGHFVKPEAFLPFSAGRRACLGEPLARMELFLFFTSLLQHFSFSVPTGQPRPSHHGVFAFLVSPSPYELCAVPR

[5] = BACE enzyme assay, IC50's in uM, read-out: BACE1 FRET assay
[6] = HEK293, HEK cell-based assay, IC50's in uM, read-out: HEK cell assay
[7] = 2D6 IC50 (uM), CYP enzyme inhibition
[8] = BACE enzyme assay, read-out: BACE1 FRET assay
[9] = HEK293, HEK cells, read-out: HEK cell assay
[10] = BACE enzyme assay IC50, read-out: BACE1 FRET assay
[11] = HEK293, HEK cell-based assay IC50, read-out: HEK cell assay
[12] = 2D6 IC50 (uM), CYP2D6 inhibition
[13] = read-out: BACE1 FRET assay (IC50)
[14] = HEK293, HEK cells, read-out: HEK cell assay (IC50)
[15] = 2D6 IC50, CYP enzyme inhibition
[16] = HEK293, cell-based assay, HEK cells, IC50's in uM, read-out: HEK cell assay

Row | SMILES | HLM ([1]; human liver microsomal data) [µL/min/mg] | IC50 (CYP3A4 (CYP3A)) [nM] | IC50 [2, 5] [µM] | RLM ([4]; rat liver microsomal data) [µL/min/mg] | IC50 (CYP2D6; [7]) [µM] | HLM ([1]; human liver microsomes) [µL/min/mg] | IC50 [2, 10] [µM] | IC50 [3, 11] [µM] | RLM ([4]; rat liver microsomes) [µL/min/mg] | IC50 (CYP2D6; [12]) [µM] | other results
1 | COCC(=O)N[C@@H](Cc1cc(F)cc(-c2nccs2)c1)[C@H](O)CN[C@H]1CC2(CCC2)Oc2ncc([C@@H]3CC3(C)C)cc21 [Example 773, N-((1S,2R)-3-(((4′S)-6′-((1R)-2,2-dimethylcyclopropyl)-3′,4′-dihydrospiro[cyclobutane-1,2′-pyrano[2,3-b]pyridin]-4′-yl)amino)-1-(3-fluoro-5-(1,3-thiazol-2-yl)benzyl)-2-hydroxypropyl)-2-methoxyacetamide] | 62 | 300 | 0.003 | 67 | 0.3 |  |  |  |  |  | IC50 [3, 6]: 0.006 µM
2 | COCC(=O)N[C@@H](Cc1ccc(F)cc1)[C@H](O)CN[C@H]1CC2(CCC2)Oc2c(-c3cnc[nH]3)cc(CC(C)C)cc21 [compound 513] | 143 | 200 |  | 82 | 2.5 |  |  |  |  |  | IC50 [2, 8]: 0.088 µM; IC50 [3, 9]: 0.013 µM
3 | COCC(=O)N[C@@H](Cc1ccc(F)cc1)[C@H](O)CN[C@H]1CC(C)(C)Oc2c1cc(Br)c1c2OCO1 [compound 745] |  | 500 |  |  |  | 179 | 5.73 | 0.229 | 177 | 3.1 | 
4 | CO[C@H](C)C(=O)N[C@@H](Cc1cc(F)cc(-c2nccs2)c1)[C@H](O)CN[C@H]1CC2(CCC2)Oc2ncc(CC(C)(C)F)cc21 [compound 742] |  | 700 |  |  |  | 39.5 | 0.084 | 0.045 | 42 | 0.95 | 
5 | Cc1cccc(CN2CCO[C@@H](C(=O)N[C@@H](Cc3ccc(F)cc3)[C@H](O)CN[C@H]3CC4(CCC4)Oc4ncc(CC(C)(C)C)cc43)C2)c1 [compound 685] |  | 200 |  |  |  | 662 | 0.013 | 0.012 | 283 | 3.1 | 
6 | CO[C@H](C)C(=O)N[C@@H](Cc1cc(F)cc(F)c1)[C@H](O)CN[C@H]1CC2(CCC2)Oc2c1cc(CC(C)C)nc2Cl [compound 686] |  | 200 |  |  |  | 921 | 0.003 | 0.052 | 399 | 6.1 | 
7 | CC(=O)N[C@@H](Cc1cc(F)cc(F)c1)[C@H](O)CN[C@H]1CC2(CCC2)Oc2c(-c3ccncc3)cc(Cl)cc21 [compound 582] |  | 100 |  |  |  | 97 |  |  | 829 |  | IC50 [2, 13]: 0.024 µM; IC50 [3, 14]: 0.057 µM; IC50 (CYP2D6; 2D6 IC50, CYP2D6 inhibition): 0.4 µM
8 | CO[C@H](C)C(=O)N[C@@H](Cc1cc(F)cc(F)c1)[C@H](O)CN[C@H]1CC2(CCC2)Oc2c(-c3cnc[nH]3)cc(CC(C)C)cc21 [compound 476] | 329 | 600 |  | 408 |  |  |  |  |  |  | IC50 ([2]; Table 2, read-out: BACE1 FRET assay): 0.028 µM; IC50 ([3]; HEK293, Table 2, HEK cells, read-out: HEK cell assay): 0.005 µM; IC50 (CYP2D6; [15]): 12.3 µM
9 | CC(=O)N[C@@H](Cc1ccc(F)c(-c2ncc[nH]2)c1)[C@H](O)CN[C@H]1CC2(CCC2)Oc2ncc(CC(C)(C)C)cc21 [Example 428, N-((2S,3R)-4-((S)-2,2-spirocyclobutyl-6-neopentyl-3,4-dihydro-2H-pyrano[2,3-b]pyridin-4-ylamino)-1-(4-fluoro-3-(1H-imidazol-2-yl)phenyl)-3-hydroxybutan-2-yl)acetamide] |  | 300 |  |  |  | 225 | 0.061 | 0.013 | 124 | 1.3 | 
10 | CC(=O)N[C@@H](Cc1cc(F)cc(-c2cccnc2)c1)[C@H](O)CN[C@H]1CC2(CCC2)Oc2ccc(CC(C)(C)C)cc21 [compound 649] |  | 300 |  |  |  | 706 |  |  | 482 |  | IC50 [2, 13]: 0.007 µM; IC50 [3, 14]: 0.03 µM; IC50 (CYP2D6; 2D6 IC50, CYP2D6 inhibition): 0.5 µM
11 | CCCc1cnc2c(c1)[C@@H](NC[C@@H](O)[C@H](Cc1cc(F)cc(-c3nccs3)c1)NC(=O)[C@@H](C)OC)CC1(CCC1)O2 [compound 853] | 93 | 400 | 0.043 | 101 |  |  |  |  |  |  | IC50 [3, 16]: 0.075 µM; IC50 (CYP2D6; [15]): 0.7 µM
12 | COCC(=O)N[C@@H](Cc1cc(F)cc(F)c1)[C@H](O)CN[C@H]1CC2(CCC2)Oc2c1cc(CC(C)C)nc2-c1nccn1C [compound 714] |  | ≤ 30 |  |  |  | 20 | 0.016 | 0.017 | 43 | 2.2 | 
13 | CO[C@H](C)C(=O)N[C@@H](Cc1cccc(F)c1)[C@H](O)CN[C@H]1CC2(CCC2)Oc2c(-c3ccncc3)cc(CC(C)(C)O)cc21 [compound 567] | 67 | 100 |  | 120 | 2.2 |  |  |  |  |  | IC50 [2, 8]: 0.039 µM; IC50 [3, 9]: 0.009 µM
14 | COCC(=O)N[C@@H](Cc1ccc(F)cc1)[C@H](O)CN[C@@H]1CC2(CCC2)Oc2c1cc(CC(C)(C)C)nc2C#N [compound 492] | 94 | 400 |  | 190 | 8.2 |  |  |  |  |  | IC50 [2, 8]: 5.04 µM; IC50 [3, 9]: 0.462 µM
15 | COCC(=O)N[C@@H](Cc1cc(F)cc(-c2ncc(C)s2)c1)[C@H](O)CN[C@H]1CC2(CCC2)Oc2ncc(CC(C)C)cc21 [compound 732] |  | 200 |  |  |  | 551 | 0.018 | 0.083 | 399 | 2.5 | 
16 | CC#Cc1cnc2c(c1)[C@@H](NC[C@@H](O)[C@H](Cc1cccc(Br)c1)NC(=O)COC)CC1(CCC1)O2 [compound 812] | 260 | 400 | 0.258 | 345 | 3 |  |  |  |  |  | IC50 [3, 6]: 0.954 µM
17 | CC(C)(C)Cc1cnc2c(c1)[C@@H](NC[C@@H](O)[C@H](Cc1cc(F)cc(-c3nccs3)c1)NC(=O)[C@H]1CCCO1)CC1(CCC1)O2 [compound 877] | 46 | 200 | 0.005 | 64 |  |  |  |  |  |  | IC50 [3, 16]: 0.012 µM; IC50 (CYP2D6; [15]): 0.7 µM
18 | CC(C)(C)Cc1cnc2c(c1)[C@@H](NC[C@@H](O)[C@H](Cc1cc(F)cc(-c3nccs3)c1)NC(=O)C1(C)CC1)CC1(CCC1)O2 [compound 876] | 64 | 200 | 0.036 | 91 |  |  |  |  |  |  | IC50 [3, 16]: 0.132 µM; IC50 (CYP2D6; [15]): 0.3 µM
19 | CO[C@H](C)C(=O)N[C@@H](Cc1cccc(-c2nccs2)c1F)[C@H](O)CN[C@H]1CC2(CCC2)Oc2ncc(CC(C)(C)C)cc21 [compound 909] | 76 | 100 | 0.157 | 127 |  |  |  |  |  |  | IC50 [3, 16]: 0.052 µM; IC50 (CYP2D6; [15]): 0.9 µM
20 | CC(=O)N[C@@H](Cc1ccc2c(c1)OCO2)[C@H](O)CN[C@H]1CC2(CCC2)Oc2ncc(CC(F)(F)F)cc21 [compound 517] | 32 | 500 |  | 51 | 7.8 |  |  |  |  |  | IC50 [2, 8]: 0.178 µM; IC50 [3, 9]: 0.202 µM
21 | Cc1nc(CN2CCO[C@H](C(=O)N[C@@H](Cc3ccc(F)cc3)[C@H](O)CN[C@H]3CC4(CCC4)Oc4ncc(CC(C)(C)C)cc43)C2)cs1 [compound 762] | 297 | 300 | 0.037 | 522 | 2.6 |  |  |  |  |  | IC50 [3, 6]: 0.037 µM
